Results as given in patent US20100216120A1, “Rapid infectious virus assay” (priority 2009, published 2010).

Key:
[1] = tested on: infectious HIV from monocytes; test: ATP-triggered release of infectious virus from CD8-depleted PBMC monocytes, TZM reporter cell luciferase readout, no fibronectin coating; format: cell-based, Human Immunodeficiency Virus (HIV); details: ATP 1-5 mM, absence of fibronectin coating, 200 k CD8-depleted PBMCs, 3 days; HIV-positive vs negative individuals
Procedure: ATP (1 mM) was then added in a volume of 100 ul for a 3 hrs at 37° C. TZMs (10K) were then added on to the wells in 100 ul in RPMI 10%. After 3 days later, the supernatants were removed and steady-glo reagent was added on to the TZMs and read on a Spectramax.
The inventors tested the ability of ATP (1-5 mM) to release infectious virus from monocytes in absence of fibronectin coating on to the tissue culture wells. […] Further differentiation and/or activation is useful to enhance virus release.

[2] = tested on: infectious HIV from monocytes; test: Rapid Infectious Viral Assay (RIVA): virus release from monocytes on fibronectin-coated wells, TZM-bl reporter cell luciferase readout; format: cell-based, Human Immunodeficiency Virus (HIV); details: ATP 1 mM
Procedure: The plates were then coated with fibronectin and BSA. 150 k CD8-depleted PBMCs were added on to a 96-well for 3 hrs followed by washings using RPMI 10%. ATP (1 mM) was then added in a volume of 100 ul for a 3 hrs at 37° C. TZMs (15K) were then added on to the wells the next day. 5 days later after launch, the supernatants were removed and steady-glo reagent was added on to the TZMs and read on a Spectramax.
ATP (1 mM) was then added in a volume of 100 ul for a 3 hrs at 37° C. TZMs (10K) were then added on to the wells. 4 days later after launch, the supernatants were removed and steady-glo reagent was added on to the TZMs and read on a Spectramax.
ATP (1 mM) was then added in a volume of 100 ul for a 3 hrs at 37° C. TZMs (10K) were then added on to the wells. 3 days later after launch, the supernatants were removed and steady-glo reagent was added on to the TZMs and read on a Spectramax.
ATP (1 mM) was then added in a volume of 100 ul for a 3 hrs at 37° C. TZMs (20K) were then added on to the wells. 3 days later after launch, the supernatants were removed and steady-glo reagent was added on to the TZMs and read on a Spectramax.
In a preferred embodiment, CD8-depleted PBMC were isolated from HIV-negative donors and HIV patients with VL<50 copies/ml using Dynal beads. Peripheral monocytes (CD14) were used in a rapid infectious assay using TZM-bl coculture technique. The inventors compare this shorter infection assay to classical method of PBMC activation with anti CD3/CD28 antibodies. Major CCR5 blockers were addressed. Presence of infectious virus was also investigated using FACS and rtPCR.
FIG. 2 illustrates a test of the ability of ATP (1 mM) to release infectious virus from monocytes in presence of fibronectin coating on to the tissue culture wells. The HIV infectivity was measured by measuring the RLU on a Spectramax M5 plate readert.
1. A 96 well plate (a 48 well can be used) is coated with 100 ul RPMI containing fibronectin (50 ug/ml) in BSA (0.5%) for 30 minutes at room temperature.
2. CD8-depleted PBMC's which have been frozen at 2 million cells per ml and stored at −80 C in 22% FBS and 10% DMSO are thawed quickly and about 100 ul containing 200 k cells are added to the wells immediately
3. Let cells of interest attach for 2 hours (longer even overnight up to 20 hrs can be used)
4. Remove all the media which contains non-adherent cells and wash with 200 ul of RPMI with 10% FBS, pipetting gently, removing this wash media. The adherent monocytes remain.
5. […]
7. Finally quantitate how much viral infection has occurred by reading luciferase production using Steady Glow reagent (Promega) and a luminometer/spectrophotometer. […]

Nc1ncnc2c1ncn2[C@@H]1O[C@H](COP(=O)(O)OP(=O)(O)OP(=O)(O)O)[C@@H](O)[C@H]1O [ATP]
release of infectious virus from monocytes (RLU on TZMs) [1]: incapable of triggering release of viral particles from monocytes
release of infectious virus from monocytes (RLU on TZMs) ([2]; fibronectin and BSA coating, 100 k CD8-depleted PBMCs O/N, 3-day assay (Format #3)): triggers the release of the virus
release of infectious virus from monocytes (RLU on TZMs) ([2]; fibronectin and BSA coating, 100 k CD8-depleted PBMCs O/N, 4-day assay (Format #2)): triggers the release of the virus
release of infectious virus from monocytes (RLU on TZMs) ([2]; fibronectin and BSA coating, 225 k cells, 48-well, 4-day assay (Format #4)): triggers the release of the virus
release of infectious virus from monocytes (RLU on TZMs) ([2]; fibronectin coating, 150 k CD8-depleted PBMCs, 5 day assay (Format #1)): capable of triggering release of viral particles from monocytes
